Experimental data reported in patent US12344597B2, “Alkoxy-substituted pyridinyl derivatives as LPA1 receptor antagonists and their use in the treatment of fibrosis” (IDORSIA PHARMACEUTICALS LTD, priority 2018, dated 2025).

Target: human LPA1 receptor (Homo sapiens (Human), UniProt Q92633)
Assay: Beta-arrestin recruitment assay to determine IC50 values for human LPAR1
Type: cell-based
Details: antagonist mode, Tango EDG2-bla U2OS cells, LPA 18:1 500 nM final
Excerpt: Beta-Arrestin Recruitment Assay to Determine IC50 Values for Human LPAR1
The Tango™ EDG2-bla U2OS cells are obtained from Invitrogen. These cells contain the human LPA1 receptor cDNA linked to a TEV protease site and a Gal4-VP16 transcription factor integrated into the Tango™ GPCR-bla U2OS parental cell line. This parental cell line stably expresses a beta-arrestin/TEV protease fusion protein and the beta-lactamase (bla) reporter gene under the control of a UAS response element. Upon LPA (agonist) binding, LPA1 receptor gets activated, leading to arrestin-protease recruitment and proteolytic release of the transcription factor: The transcription factor then regulates transcription of a beta-lactamase reporter construct, which is measured upon addition of the live-cell substrate.
10′000 Tango™ EDG2-bla U2OS cells are seeded in a 384-well black with clear bottom plate in 30 μl Freestyle 293 Expression Medium (Invitrogen) and incubated for 20 h at 37° C., 5% CO2. […] IC50 is the concentration of antagonist inhibiting 50% of the maximal response.

Chain of human LPA1 receptor (Q92633 whole entry): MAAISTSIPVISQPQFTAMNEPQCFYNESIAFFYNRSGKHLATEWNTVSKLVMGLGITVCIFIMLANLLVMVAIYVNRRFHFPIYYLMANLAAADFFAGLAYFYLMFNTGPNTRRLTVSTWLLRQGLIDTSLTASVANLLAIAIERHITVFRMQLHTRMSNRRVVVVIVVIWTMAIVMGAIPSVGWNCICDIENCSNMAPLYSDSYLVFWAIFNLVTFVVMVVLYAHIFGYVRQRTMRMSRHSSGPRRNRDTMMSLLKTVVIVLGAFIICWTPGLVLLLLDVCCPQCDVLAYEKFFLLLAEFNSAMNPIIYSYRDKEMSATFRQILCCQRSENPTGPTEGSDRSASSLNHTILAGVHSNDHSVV

Row | Compound | IC50 [nM]
1 | CNS(=O)(=O)CC(=O)N1CC(C(=O)Nc2ccc(C)nc2OC(F)F)(c2ccccc2C(C)C)C1 [Ex 12-6, N-(2-(difluoromethoxy)-6-methylpyridin-3-yl)-3-(2-isopropylphenyl)-1-(2-(N-methylsulfamoyl)acetyl)azetidine-3-carboxamide] | 13
2 | COC(=O)CCS(=O)(=O)N1CCC(C(=O)Nc2ccc(C)nc2OC(F)F)(c2ccccc2C(C)C)CC1 [Ex 13-6, methyl 3-((4-((2-(difluoromethoxy)-6-methylpyridin-3-yl)carbamoyl)-4-(2-isopropylphenyl)piperidin-1-yl)sulfonyl)propanoate] | 26
3 | Cc1ccc(NC(=O)C2(c3ccccc3C(C)C)CN(C(=O)CN[C@H](C)CO)C2)c(OC(F)F)n1 [Ex 12-58, (R)-N-(2-(difluoromethoxy)-6-methylpyridin-3-yl)-1-((R)-(1-hydroxypropan-2-yl)glycyl)-3-(2-isopropylphenyl)azetidine-3-carboxamide] | 10
4 | Cc1ccc(NC(=O)C2(c3ccccc3C(C)C)CN(C(=O)CCC(=O)O)C2)c(OC(F)F)n1 [Ex 12-71, 4-(3-((2-(difluoromethoxy)-6-methylpyridin-3-yl)carbamoyl)-3-(2-isopropylphenyl)azetidin-1-yl)-4-oxobutanoic acid] | 10
5 | COCCNCC(=O)N1CC(C(=O)Nc2ccc(C)nc2OC(F)F)(c2ccccc2C(C)C)C1 [Ex 12-54, N-(2-(difluoromethoxy)-6-methylpyridin-3-yl)-3-(2-isopropylphenyl)-1-((2-methoxyethyl)glycyl)azetidine-3-carboxamide] | 10
6 | CCNCCN1CC(C(=O)Nc2ccc(C)nc2OC(F)F)(c2ccccc2C(C)C)C1 [Ex 11-63, N-(2-(difluoromethoxy)-6-methylpyridin-3-yl)-1-(2-(ethylamino)ethyl)-3-(2-isopropylphenyl)azetidine-3-carboxamide] | 92
7 | COc1cc(Br)cnc1NC(=O)C1(c2ccccc2C(C)C)CN(S(N)(=O)=O)C1 [Ex 81-2, N-(5-bromo-3-methoxypyridin-2-yl)-3-(2-isopropylphenyl)-1-sulfamoylazetidine-3-carboxamide] | 13
8 | CC(C)c1ccccc1C1(C(=O)Nc2cc(F)cnc2OC(F)F)CNC1 [Ex 8, N-(2-(difluoromethoxy)-5-fluoropyridin-3-yl)-3-(2-isopropylphenyl)azetidine-3-carboxamide] | 338
9 | Cc1ccc(NC(=O)C2(c3ccccc3C(C)C)CN(C(=O)C[C@](C)(O)C(=O)O)C2)c(OC(F)F)n1 [Ex 12-117, (S)-4-(3-((2-(difluoromethoxy)-6-methylpyridin-3-yl)carbamoyl)-3-(2-isopropylphenyl)azetidin-1-yl)-2-hydroxy-2-methyl-4-oxobutanoic acid] | 7
10 | COC(=O)c1n[nH]cc1CN1CC(C(=O)Nc2ccc(C)nc2OC(F)F)(c2ccccc2C(C)C)C1 [Ex 11-37, methyl 4-((3-((2-(difluoromethoxy)-6-methylpyridin-3-yl)carbamoyl)-3-(2-isopropylphenyl)azetidin-1-yl)methyl)-1H-pyrazole-3-carboxylate] | 6
11 | COc1ccc(NC(=O)C2(c3ccccc3C(C)C)CN(C(=O)CC(C)(C)C(=O)O)C2)c(OC)n1 [Ex 12-86, 4-(3-((2,6-dimethoxypyridin-3-yl)carbamoyl)-3-(2-isopropylphenyl)azetidin-1-yl)-2,2-dimethyl-4-oxobutanoic acid] | 27
12 | COC(=O)c1cnc(N2CC(C(=O)Nc3ccc(C)nc3OC(F)F)(c3ccccc3C(C)C)C2)nc1 [Ex 18-4, methyl 2-(3-((2-(difluoromethoxy)-6-methylpyridin-3-yl)carbamoyl)-3-(2-isopropylphenyl)azetidin-1-yl)pyrimidine-5-carboxylate] | 31
13 | Cc1ccc(NC(=O)C2(c3ccccc3C(C)C)CN(CCCC3(C(=O)O)CC3)C2)c(OC(F)F)n1 [Ex 11-71, 1-(3-(3-((2-(difluoromethoxy)-6-methylpyridin-3-yl)carbamoyl)-3-(2-isopropylphenyl)azetidin-1-yl)propyl)cyclopropane-1-carboxylic acid] | 7
14 | Cc1ccc(NC(=O)C2(c3ccccc3C(C)C)CN(C(=O)CS(N)(=O)=O)C2)c(OC(F)F)n1 [Ex 12-4, N-(2-(difluoromethoxy)-6-methylpyridin-3-yl)-3-(2-isopropylphenyl)-1-(2-sulfamoylacetyl)azetidine-3-carboxamide] | 20
15 | COC(=O)C1(COC(=O)N2CC(C(=O)Nc3ccc(C)nc3OC(F)F)(c3ccccc3C(C)C)C2)CC1 [Ex 14-11, (1-(methoxycarbonyl)cyclopropyl)methyl 3-((2-(difluoromethoxy)-6-methylpyridin-3-yl)carbamoyl)-3-(2-isopropylphenyl)azetidine-1-carboxylate] | 127
16 | Cc1ccc(NC(=O)C2(c3ccccc3C(C)C)CN(Cc3ccc(C(=O)O)[nH]3)C2)c(OC(F)F)n1 [Ex 11-44, 5-((3-((2-(difluoromethoxy)-6-methylpyridin-3-yl)carbamoyl)-3-(2-isopropylphenyl)azetidin-1-yl)methyl)-1H-pyrrole-2-carboxylic acid] | 5
17 | CCN(CC(=O)O)CC(=O)N1CC(C(=O)Nc2ccc(C)nc2OC(F)F)(c2ccccc2C(C)C)C1 [Ex 58, N-(2-(3-((2-(difluoromethoxy)-6-methylpyridin-3-yl)carbamoyl)-3-(2-isopropylphenyl)azetidin-1-yl)-2-oxoethyl)-N-ethylglycine] | 48
18 | COC(=O)C(C)(C)CC(=O)N1CC(C(=O)Nc2ccc(OC)nc2OC)(c2ccccc2C(C)C)C1 [Ex 12-85, methyl 4-(3-((2,6-dimethoxypyridin-3-yl)carbamoyl)-3-(2-isopropylphenyl)azetidin-1-yl)-2,2-dimethyl-4-oxobutanoate] | 140
19 | Cc1ccc(NC(=O)C2(c3ccccc3C(C)C)CN(C(=O)CNC[C@H](C)O)C2)c(OC(F)F)n1 [Ex 12-56, (S)-N-(2-(difluoromethoxy)-6-methylpyridin-3-yl)-1-((S)-(2-hydroxypropyl)glycyl)-3-(2-isopropylphenyl)azetidine-3-carboxamide] | 7
20 | CCOC(=O)C(F)(F)CC(=O)N1CC(C(=O)Nc2ccc(C)nc2OC(F)F)(c2ccccc2C(C)C)C1 [Ex 12-111, ethyl 4-(3-((2-(difluoromethoxy)-6-methylpyridin-3-yl)carbamoyl)-3-(2-isopropylphenyl)azetidin-1-yl)-2,2-difluoro-4-oxobutanoate] | 18
21 | Cc1ccc(NC(=O)C2(c3ccccc3C(C)C)CNC2)c(OC(C)C)n1 [Ex 2, N-(2-isopropoxy-6-methylpyridin-3-yl)-3-(2-isopropylphenyl)azetidine-3-carboxamide] | 320
22 | Cc1ccc(NC(=O)C2(c3ccccc3C3CCCC3)CNC2)c(OC(F)F)n1 [Ex 25, 3-(2-cyclopentylphenyl)-N-(2-(difluoromethoxy)-6-methylpyridin-3-yl)azetidine-3-carboxamide] | 8.6
23 | CC(C)c1ccccc1C1(C(=O)Nc2cccnc2OC(F)F)CN(c2ncc(C#N)cn2)C1 [Ex 18-25, 1-(5-cyanopyrimidin-2-yl)-N-(2-(difluoromethoxy)pyridin-3-yl)-3-(2-isopropylphenyl)azetidine-3-carboxamide] | 5
24 | CCOC(=O)c1ccnc(N2CC(C(=O)Nc3ccc(C)nc3OC(F)F)(c3ccccc3C(C)C)C2)n1 [Ex 18-14, ethyl 2-(3-((2-(difluoromethoxy)-6-methylpyridin-3-yl)carbamoyl)-3-(2-isopropylphenyl)azetidin-1-yl)pyrimidine-4-carboxylate] | 560
25 | Cc1ccc(NC(=O)C2(c3ccccc3C(C)C)CN(CC(=O)O)C2)c(OC(F)F)n1 [Ex 11-12, 2-(3-((2-(difluoromethoxy)-6-methylpyridin-3-yl)carbamoyl)-3-(2-isopropylphenyl)azetidin-1-yl)acetic acid] | 22
26 | Cc1ccc(NC(=O)C2(c3ccccc3C(C)C)CN(C(=O)OCC(=O)O)C2)c(OC(F)F)n1 [Ex 14-1, 2-((3-((2-(difluoromethoxy)-6-methylpyridin-3-yl)carbamoyl)-3-(2-isopropylphenyl)azetidine-1-carbonyl)oxy)acetic acid] | 12
27 | CCOC(=O)CC(C)(C)CN1CC(C(=O)Nc2ccc(C)nc2OC(F)F)(c2ccccc2C(C)C)C1 [Ex 11-32, ethyl 4-(3-((2-(difluoromethoxy)-6-methylpyridin-3-yl)carbamoyl)-3-(2-isopropylphenyl)azetidin-1-yl)-3,3-dimethylbutanoate] | 805
28 | COc1cnc(NC(=O)C2(c3ccccc3C(C)C)CN(S(N)(=O)=O)C2)c(OC)c1 [Ex 81-5, N-(3,5-dimethoxypyridin-2-yl)-3-(2-isopropylphenyl)-1-sulfamoylazetidine-3-carboxamide] | 63
29 | Cc1ccc(NC(=O)C2(c3cc(F)ccc3C(C)C)CN(C(=O)CC(C)(C)C(=O)O)C2)c(OC(F)F)n1 [Ex 39-5, 4-(3-((2-(difluoromethoxy)-6-methylpyridin-3-yl)carbamoyl)-3-(5-fluoro-2-isopropylphenyl)azetidin-1-yl)-2,2-dimethyl-4-oxobutanoic acid] | 10
30 | Cc1ccc(NC(=O)C2(c3ccccc3C(C)C)CN(C(=O)OCC3(C(=O)O)COC3)C2)c(OC(F)F)n1 [Ex 14-14, 3-(((3-((2-(difluoromethoxy)-6-methylpyridin-3-yl)carbamoyl)-3-(2-isopropylphenyl)azetidine-1-carbonyl)oxy)methyl)oxetane-3-carboxylic acid] | 30
